Assay [1] addresses T1, Bifunctional epoxide hydrolase 2 (Homo sapiens, UniProt P34913).
T1 sequence (P34913 whole entry): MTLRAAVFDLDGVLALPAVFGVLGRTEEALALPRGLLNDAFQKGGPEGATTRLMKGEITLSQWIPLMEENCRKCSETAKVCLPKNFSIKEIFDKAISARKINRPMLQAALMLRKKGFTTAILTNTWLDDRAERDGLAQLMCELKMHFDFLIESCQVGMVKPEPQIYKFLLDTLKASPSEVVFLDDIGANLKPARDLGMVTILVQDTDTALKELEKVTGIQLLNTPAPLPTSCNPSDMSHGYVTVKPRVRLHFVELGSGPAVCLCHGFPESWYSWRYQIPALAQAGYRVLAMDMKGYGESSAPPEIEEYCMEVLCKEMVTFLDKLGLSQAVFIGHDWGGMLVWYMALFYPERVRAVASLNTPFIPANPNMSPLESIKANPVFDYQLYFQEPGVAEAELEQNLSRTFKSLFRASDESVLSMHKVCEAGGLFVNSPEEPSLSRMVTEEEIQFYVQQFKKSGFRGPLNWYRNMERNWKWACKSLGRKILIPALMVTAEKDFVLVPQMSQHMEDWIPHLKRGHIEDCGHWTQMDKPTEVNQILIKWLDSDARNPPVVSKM
Put plainly: Inhibition of sEH (unknown origin).

Assay [2] is described as follows: Displacement of (Z)-5-(4-(3-carboxy-3-hydroxyacryloyl)-4-(4-chlorobenzyl)piperidine-1-carbonyl)-2-(6-hydroxy-3-oxo-3H-xanthen-9-yl)benzoic acid from Influenza A virus (A/Viet Nam/1203/2004(H5N1)) recombinant C-terminal 10X-His-tagged polymerase acidic protein (1 to 209 residues) expressed in Escherichia coli BL21 (DE3) after 30 mins by fluorescence polarization assay. For orientation: Fluorescence polarisation rises when a labelled molecule tumbles more slowly, as on binding a larger partner.

A further assay deals with Aminopeptidase B (Homo sapiens, UniProt Q9H4A4). Put plainly: Inhibition of aminopeptidase B (unknown origin).

Structures are written as SMILES.

As a reminder, the IC50 is the concentration at which inhibition is half-maximal. A high value points to weaker potency. Usually Ki stands for the equilibrium dissociation constant of an inhibitor or competing ligand from its target.

Chain of Aminopeptidase B (Q9H4A4 whole entry): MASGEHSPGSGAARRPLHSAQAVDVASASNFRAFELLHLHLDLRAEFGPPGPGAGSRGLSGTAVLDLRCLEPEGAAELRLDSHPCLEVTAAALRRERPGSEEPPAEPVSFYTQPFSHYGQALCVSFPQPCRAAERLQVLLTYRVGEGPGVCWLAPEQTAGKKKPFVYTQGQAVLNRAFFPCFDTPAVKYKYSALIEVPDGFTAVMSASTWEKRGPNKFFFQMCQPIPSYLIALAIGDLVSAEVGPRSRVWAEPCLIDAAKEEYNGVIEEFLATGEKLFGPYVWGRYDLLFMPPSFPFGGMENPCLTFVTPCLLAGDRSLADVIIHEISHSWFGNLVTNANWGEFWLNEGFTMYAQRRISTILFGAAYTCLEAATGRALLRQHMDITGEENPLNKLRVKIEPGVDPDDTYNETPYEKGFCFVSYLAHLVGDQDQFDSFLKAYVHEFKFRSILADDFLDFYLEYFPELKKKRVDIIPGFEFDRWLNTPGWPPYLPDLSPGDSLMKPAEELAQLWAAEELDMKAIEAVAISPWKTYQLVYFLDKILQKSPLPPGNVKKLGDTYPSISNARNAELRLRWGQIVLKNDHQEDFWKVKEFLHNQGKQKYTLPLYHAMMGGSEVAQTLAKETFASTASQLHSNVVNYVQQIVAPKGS

Molecule `O=C(Nc1ccccc1)NC1CCCCC1` showed an IC50 in assay [1] of 760 nM.

`O=C(O)/C(O)=C/C(O)C1(Cc2ccc(Cl)cc2)CCN(Cc2ccccc2)CC1` (stereo not given): the Ki in assay [2] came out at 90 nM.

On Aminopeptidase B, `CC(C)C[C@H](NC(=O)[C@@H](O)[C@H](N)CC1CCCCC1)C(=O)O` displayed a half-inhibitory concentration (IC50) of 3.5 µM.

As for `O=C(O)/C(O)=C/C(O)C1(Cc2ccc(Cl)cc2)CCN(CC2CCCCC2)CC1` (stereo not given), the inhibitory constant (Ki) in assay [2] is 84 nM.

For the molecule `CC(C)C[C@H](NC(=O)[C@@H](O)[C@H](N)Cc1ccccc1)C(=O)O` [UBENIMEX], the IC50 on Aminopeptidase B worked out at 160 µM.

For the origin of these results see ChEMBL document CHEMBL3808350, “Stacking with No Planarity?” (ACS Med Chem Lett, 2016).
